Legend:
[1] = Intracellular MTX and MTXPG levels in RBCs of polyarthritis patients receiving low-dose MTX; assay type: in vivo, human; settings: one patient on 2.5 mg per week MTX, RBC
Protocol: Blood samples (5 ml) from polyarthritis patients receiving low-dose MTX were collected after written informed consent. The patients had received a median of 15 mg MTX (range 2.5 mg to 40 mg per week) for at least three months. Blood samples were centrifuged for 10 minutes to separate plasma and buffy coat from RBCs. After washing the RBC pellet with 2 volumes of saline, RBC count was determined with a Beckman Coulter Onyx Counter; RBCs were subsequently stored at −70° C. until analysis. Results were normalized to 10^9 red blood cells. Patient results were expressed as average ±SEM (range).
MTXPG concentrations were determined using the methods described in Example II except that RBC extracts were not spiked with MTXPG. MTXPG concentrations were calculated by subtracting […]. To quantify MTX concentrations without enzymatic treatment, a second 100 μl aliquot of patient RBC extract was obtained but not treated with plasma or buffer. Rather, 200 μl water was added to the RBC extract prior to immediate deproteinization with 30 μl 70% perchloric acid as described above.
An exemplary determination of MTXPG concentration in the red blood cells of a patient on 2.5 mg per week MTX therapy follows. […]

gamma glutamyl hydrolase = target: T1, gamma glutamyl hydrolase (Homo sapiens, UniProt Q92820); assay: Enzymatic conversion of MTXPGs to MTX in RBC extract using plasma as source of gamma glutamyl hydrolase; assay type: biochemical; settings: for conversion to MTX: in the dark, 1000 nmol/L RBC
T1 construct: contacting the extract with plasma as a source of gamma glutamyl hydrolase; tissue Sigma P9523; host or cells: reconstituted lyophilized plasma (purchased), mixed with RBC hemolysate from healthy donors
T1 sequence (Q92820 25-318): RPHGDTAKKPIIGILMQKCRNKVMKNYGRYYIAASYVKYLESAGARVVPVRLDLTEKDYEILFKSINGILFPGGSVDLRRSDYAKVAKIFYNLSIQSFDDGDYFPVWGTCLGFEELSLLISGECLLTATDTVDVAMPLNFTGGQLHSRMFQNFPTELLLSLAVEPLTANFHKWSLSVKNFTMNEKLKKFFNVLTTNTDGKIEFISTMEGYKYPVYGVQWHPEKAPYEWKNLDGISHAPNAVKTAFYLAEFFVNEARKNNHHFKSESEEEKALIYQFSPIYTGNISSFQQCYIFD
Protocol: MTXPGs were enzymatically converted to MTX by incubation with RBC extract and plasma as follows. RBCs were isolated from healthy donors (Blood bank; San Diego, Calif.) Hemolysates were prepared having 0.88×10^9 RBC per 100 μl. For spiked samples, MTXPG (Schirks Laboratories; Jona, Switzerland) was added to RBC extracts at a final concentration of 1 μM (from stock solutions containing 100 μM MTXPG in 0.1 N potassium hydroxide). Reconstituted plasma was prepared from lyophilized plasma (Sigma, St. Louis, USA; Cat. No. P9523) and 100 μl was added to 50 μl of RBC extract, mixed for 30 seconds, and 100 μl of buffer containing 100 mM potassium phosphate pH 4.5 and 150 mM mercaptoethanol was added. […] Samples were incubated for 12-14 hours, unless otherwise indicated, in the dark at 37° C. After incubation 30 μl of 70% perchloric acid was added to the mixture, vortexed for 15 seconds and centrifuged for 10 minutes. A total volume of 80 μl was injected onto the HPLC system for analysis using the MTX detection system described in Example I.
The percent conversion of MTXPG to MTX was determined by comparing the peak area of MTX formed during the enzymatic conversion at different times with the peak area of MTX spiked in the red blood cells at the same concentration.

MTX concentration prior to enzymatic conversion [1] [pmol MTXPG/10^9 cells] | slope of plot of observed MTX concentration versus spiked concentration (gamma glutamyl hydrolase; RBC sample spiked prior to deglutamation (FIG. 5)) | conversion to MTX (gamma glutamyl hydrolase; after 8 hour incubation at 37° C.) | conversion to MTX (gamma glutamyl hydrolase; by 4 hours, 37° C.) | SMILES
16.5 |  |  |  | CN(Cc1cnc2nc(N)nc(N)c2n1)c1ccc(C(=O)N[C@@H](CCC(=O)O)C(=O)O)cc1 [MTX, methotrexate]
 | 0.98 | completely converted | largely complete | CN(Cc1cnc2nc(N)nc(N)c2n1)c1ccc(C(=O)N[C@@H](CCC(=O)N[C@@H](CCC(=O)O)C(=O)O)C(=O)O)cc1 [MTXPG2]

— patent publication US7563590B2, “Methods of quantifying methotrexate metabolites” (Cypress Bioscience Inc., priority 2002, dated 2009)
